In ChEMBL document CHEMBL5154769, “Discovery of the First-in-Class Agonist-Based SOS1 PROTACs Effective in Human Cancer Cells Harboring Various KRAS Mutations” (J Med Chem, 2022):
Active and inactive are the calls of the source. The calls are words filed in the database; no cut-off is given here.

Key:
[1] = test system: NCI-H358; assay: Effect of compound on human NCI-H358 cells assessed as decrease in phophorylated ERK level at 1 uM and measured after 6 to 24 hr by Western blot analysis; assay type: functional, cell-based; conditions: time 6-24 hrs
[2] = molecular target: T1, von Hippel-Lindau disease tumor suppressor/Son of sevenless homolog 1 (Homo sapiens, UniProt Q07889+P40337); assay: Protac activity at VHL/SOS1 in human NCI-H358 cells assessed as SOS1 protein degradation at 1 uM incubated for 24 hr by Western blot analysis relative to control; assay type: cell-based
Target sequence in this assay (P40337 whole entry, looked up): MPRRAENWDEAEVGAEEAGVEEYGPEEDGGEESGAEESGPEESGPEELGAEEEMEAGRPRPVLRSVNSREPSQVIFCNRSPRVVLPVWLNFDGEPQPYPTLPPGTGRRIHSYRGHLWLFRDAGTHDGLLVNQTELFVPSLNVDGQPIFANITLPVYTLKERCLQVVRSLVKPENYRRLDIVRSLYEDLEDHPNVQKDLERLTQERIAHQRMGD
Target sequence in this assay (Q07889 whole entry, looked up): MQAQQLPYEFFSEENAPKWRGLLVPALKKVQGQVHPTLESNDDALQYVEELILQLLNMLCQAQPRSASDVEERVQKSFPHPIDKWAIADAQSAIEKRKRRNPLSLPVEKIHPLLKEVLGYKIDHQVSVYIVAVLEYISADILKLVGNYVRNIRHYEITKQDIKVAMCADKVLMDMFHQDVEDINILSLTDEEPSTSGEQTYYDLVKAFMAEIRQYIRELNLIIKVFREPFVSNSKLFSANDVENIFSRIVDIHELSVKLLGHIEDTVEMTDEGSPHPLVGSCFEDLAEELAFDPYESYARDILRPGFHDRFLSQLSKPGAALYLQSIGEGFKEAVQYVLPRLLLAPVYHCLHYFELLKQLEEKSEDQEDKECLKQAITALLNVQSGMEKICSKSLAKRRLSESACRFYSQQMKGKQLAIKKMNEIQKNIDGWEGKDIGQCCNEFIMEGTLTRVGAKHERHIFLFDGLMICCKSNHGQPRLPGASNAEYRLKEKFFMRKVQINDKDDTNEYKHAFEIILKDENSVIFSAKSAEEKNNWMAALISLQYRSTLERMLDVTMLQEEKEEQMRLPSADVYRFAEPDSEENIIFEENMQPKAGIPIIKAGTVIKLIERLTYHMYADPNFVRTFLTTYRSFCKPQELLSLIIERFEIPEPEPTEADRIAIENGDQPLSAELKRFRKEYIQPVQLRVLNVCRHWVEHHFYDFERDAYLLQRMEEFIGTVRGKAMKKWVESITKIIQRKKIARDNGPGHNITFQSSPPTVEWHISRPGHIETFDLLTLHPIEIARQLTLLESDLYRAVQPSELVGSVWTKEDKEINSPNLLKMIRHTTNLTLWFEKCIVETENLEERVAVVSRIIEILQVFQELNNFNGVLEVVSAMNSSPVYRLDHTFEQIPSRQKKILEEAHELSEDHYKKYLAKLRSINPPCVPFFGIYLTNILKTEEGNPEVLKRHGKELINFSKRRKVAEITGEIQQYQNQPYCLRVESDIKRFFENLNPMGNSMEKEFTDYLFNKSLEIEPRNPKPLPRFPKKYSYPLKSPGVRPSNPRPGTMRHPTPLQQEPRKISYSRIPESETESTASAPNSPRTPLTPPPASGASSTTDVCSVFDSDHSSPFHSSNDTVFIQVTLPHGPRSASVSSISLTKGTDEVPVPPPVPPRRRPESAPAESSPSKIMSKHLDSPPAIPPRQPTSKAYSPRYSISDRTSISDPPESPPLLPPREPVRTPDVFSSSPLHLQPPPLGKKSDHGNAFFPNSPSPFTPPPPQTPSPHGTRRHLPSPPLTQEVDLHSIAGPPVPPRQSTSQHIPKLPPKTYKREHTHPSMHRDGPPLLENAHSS

[3] = test system: SK-LU-1; assay: Antiproliferative activity against human SK-LU-1 cells harboring KRAS G12D mutant assessed as cell growth inhibition incubated for 7 days by CellTiter-Glo 3D cell viability assay; assay type: functional, cell-based; conditions: SK-LU-1, 168 h
[4] = test system: MIA PaCa-2; assay: Antiproliferative activity against human MIA PaCa-2 cells harboring KRAS G12C mutant assessed as cell growth inhibition incubated for 7 days by CellTiter-Glo 3D cell viability assay; assay type: functional, cell-based; conditions: MIA PaCa-2, 168 h
[5] = test system: NCI-H358; assay: Antitumor activity against human NCI-H358 cells xenografted in BALB/c nude mouse assessed as tumor growth inhibition at 20 mg/kg/day, ip incubated for 21 days; assay type: functional; conditions: NCI-H358, 504 h, time 21 day, read-out: TGI
[6] = AUClast in BALB/c mouse at 10 mg/kg, ip measured after 24 hrs by LC-MS/MS analysis; assay type: ADME, organism-based; design: dose 10 mg/kg, time 24 hrs, route ip; conditions: in vivo
[7] = Acute toxicity in BALB/c mouse assessed as change in body weight at 10 mg/kg, ip once daily for 7 days; assay type: organism-based; conditions: in vivo, 168 h, time 7 day
[8] = molecular target: T2, von Hippel-Lindau disease tumor suppressor/Son of sevenless homolog 1 (Homo sapiens, UniProt Q07889+P40337, G12C); assay: Protac activity at VHL/SOS1 in human MIA PaCa-2 cells harboring KRAS G12C mutant assessed as SOS1 protein degradation incubated for 24 hr by Western blot analysis; assay type: cell-based
T2 sequence (P40337 whole entry, looked up, stated change not applied): as the sequence (P40337 whole entry, looked up) above
T2 sequence (Q07889 whole entry, looked up, stated change not applied): as the sequence (Q07889 whole entry, looked up) above

[9] = Observed AUC (infinity) in BALB/c mouse at 10 mg/kg, ip measured after 24 hrs by LC-MS/MS analysis; assay type: ADME, organism-based; design: dose 10 mg/kg, time 24 hrs, route ip; conditions: in vivo
[10] = test system: Mus musculus; assay: In vivo inhibition of phosphorylated ERK level in BALB/c nude mouse xenografted with human NCI-H358 cells at 20 to 50 mg/kg, IT incubated for 21 days by immunohistochemistry analysis; assay type: functional, organism-based; conditions: dose 20-50 mg/kg, time 21.0 day
[11] = organism: Homo sapiens; assay: Binding affinity to SOS1/VCB E3 ligase (unknown origin) assessed as ternary complex formation by measuring hook effect incubated for 1 hr by HTRF assay
[12] = test system: HEK-293T; assay: Cytotoxicity against human HEK-293T cells assessed as cell growth inhibition incubated for 7 days by CellTiter-Glo 3D cell viability assay; assay type: toxicity, cell-based; conditions: 168 h, time 7 day
[13] = organism: Homo sapiens; assay: Co-operativity factor, Ratio of Kd for Binding affinity to VCB E3 ligase (unknown origin) assessed as binary equilibrium dissociation constant to Kd for binding affinity to SOS1/VCB E3 ligase (unknown origin) assessed as ternary dissociation constant
[14] = Effect of compound on human ASPC1 cells harboring KRAS G12D mutant assessed as inhibition of ERK phosphorylation incubated for 24 hr by Western blot analysis; assay type: functional, cell-based; conditions: ASPC1, 24 h
[15] = test system: NCI-H358; assay: Antitumor activity against human NCI-H358 cells xenografted in BALB/c nude mouse assessed as tumor growth inhibition at 10 mg/kg/day, ip incubated for 21 days; assay type: functional; conditions: NCI-H358, 504 h, time 21 day, read-out: TGI
[16] = molecular target: T2, von Hippel-Lindau disease tumor suppressor/Son of sevenless homolog 1; assay: Protac activity at VHL/SOS1 in human NCI-H358 cells harboring KRAS G12C mutant assessed as SOS1 protein degradation incubated for 24 hr by Western blot analysis; assay type: cell-based
[17] = test system: ASPC1; assay: Antiproliferative activity against human ASPC1 cells harboring KRAS G12D mutant assessed as cell growth inhibition incubated for 7 days by CellTiter-Glo 3D cell viability assay; assay type: functional, cell-based; conditions: ASPC1, 168 h
[18] = molecular target: T1, von Hippel-Lindau disease tumor suppressor/Son of sevenless homolog 1; assay: Protac activity at VHL/SOS1 in human NCI-H358 cells assessed as SOS1 protein degradation at 0.1 uM incubated for 24 hr by Western blot analysis relative to control; assay type: cell-based
Target sequence in this assay (P40337 whole entry, looked up): as the sequence (P40337 whole entry, looked up) above
Target sequence in this assay (Q07889 whole entry, looked up): as the sequence (Q07889 whole entry, looked up) above

[19] = test system: NCI-H358; assay: Effect of compound on human NCI-H358 cells stimulated with EGF assessed as decrease in KRAS-GTP level incubated for 24 hr by RAS-G-LISA assay; assay type: functional, cell-based
[20] = test system: NCI-H358; assay: Antiproliferative activity against human NCI-H358 cells harboring KRAS G12C mutant assessed as growth inhibition incubated for 7 days by CellTiter-Glo 3D cell viability assay; assay type: functional, cell-based; conditions: NCI-H358, 168 h
[21] = test system: NCI-H358; assay: Effect of compound on human NCI-H358 cells assessed as increase in phophorylated ERK level at 1 uM incubated for 4 hr by Western blot analysis; assay type: functional, cell-based
[22] = molecular target: T1, von Hippel-Lindau disease tumor suppressor/Son of sevenless homolog 1; assay: Protac activity at VHL/SOS1 in human A549 cells harboring KRAS […] mutant assessed as SOS1 protein degradation incubated for 24 hr by Western blot analysis; assay type: cell-based
[23] = molecular target: T1, von Hippel-Lindau disease tumor suppressor/Son of sevenless homolog 1; assay: Protac activity at VHL/SOS1 in human NCI-H358 cells assessed as SOS1 protein degradation at 1 uM and measured after 4 to 24 hr by western blot analysis; assay type: cell-based; conditions: time 4-24 hrs
Target sequence in this assay (P40337 whole entry, looked up): as the sequence (P40337 whole entry, looked up) above
Target sequence in this assay (Q07889 whole entry, looked up): as the sequence (Q07889 whole entry, looked up) above

[24] = molecular target: T3, von Hippel-Lindau disease tumor suppressor/Son of sevenless homolog 2 (Homo sapiens) (UniProt P40337+Q07890); assay: Protac activity at VHL/SOS2 in human NCI-H358 cells assessed as SOS2 protein degradation at 9.8 to 2500 nM incubated for 24 hr by Western blot analysis; assay type: cell-based; conditions: dose 9.8-2500 nM, DDE = dose-dependent effect
T3 sequence (P40337 whole entry, looked up): as the sequence (P40337 whole entry, looked up) above
T3 sequence (Q07890 whole entry, looked up): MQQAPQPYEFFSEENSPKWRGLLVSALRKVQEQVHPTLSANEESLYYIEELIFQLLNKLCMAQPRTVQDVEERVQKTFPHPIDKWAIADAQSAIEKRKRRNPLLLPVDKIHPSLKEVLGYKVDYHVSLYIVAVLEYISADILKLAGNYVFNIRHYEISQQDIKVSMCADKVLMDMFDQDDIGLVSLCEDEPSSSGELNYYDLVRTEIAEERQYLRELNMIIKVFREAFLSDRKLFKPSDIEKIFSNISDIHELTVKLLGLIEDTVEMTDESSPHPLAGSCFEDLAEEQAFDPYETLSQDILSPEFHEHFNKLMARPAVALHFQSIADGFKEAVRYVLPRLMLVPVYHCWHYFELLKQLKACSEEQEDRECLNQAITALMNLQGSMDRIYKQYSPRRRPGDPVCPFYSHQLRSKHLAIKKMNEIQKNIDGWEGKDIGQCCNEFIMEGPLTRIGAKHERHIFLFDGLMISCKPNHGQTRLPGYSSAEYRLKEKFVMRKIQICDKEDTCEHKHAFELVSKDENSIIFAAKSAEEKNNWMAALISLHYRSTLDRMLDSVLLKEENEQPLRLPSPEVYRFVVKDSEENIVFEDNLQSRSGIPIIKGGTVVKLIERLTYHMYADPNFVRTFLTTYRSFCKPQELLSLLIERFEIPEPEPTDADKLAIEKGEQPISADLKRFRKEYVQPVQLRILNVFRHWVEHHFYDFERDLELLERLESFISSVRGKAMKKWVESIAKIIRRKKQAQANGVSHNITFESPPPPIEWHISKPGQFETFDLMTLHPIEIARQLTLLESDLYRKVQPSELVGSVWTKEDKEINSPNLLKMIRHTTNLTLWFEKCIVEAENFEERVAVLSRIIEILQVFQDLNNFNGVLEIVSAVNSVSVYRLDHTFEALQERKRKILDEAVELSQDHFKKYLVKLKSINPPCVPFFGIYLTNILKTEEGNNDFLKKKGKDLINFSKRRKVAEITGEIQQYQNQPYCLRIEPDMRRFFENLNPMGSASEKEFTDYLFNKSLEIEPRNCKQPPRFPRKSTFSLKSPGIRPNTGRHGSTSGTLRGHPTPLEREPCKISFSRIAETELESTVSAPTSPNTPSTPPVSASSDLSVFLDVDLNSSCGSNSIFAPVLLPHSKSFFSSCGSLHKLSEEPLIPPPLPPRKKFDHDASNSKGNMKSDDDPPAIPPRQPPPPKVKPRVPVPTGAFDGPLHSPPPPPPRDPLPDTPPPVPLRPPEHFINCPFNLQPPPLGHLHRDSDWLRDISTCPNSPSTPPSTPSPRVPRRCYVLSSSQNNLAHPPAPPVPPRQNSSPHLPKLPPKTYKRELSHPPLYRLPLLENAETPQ

[25] = molecular target: T1, von Hippel-Lindau disease tumor suppressor/Son of sevenless homolog 1; assay: Protac activity at VHL/SOS1 in human ASPC1 cells assessed as SOS1 protein degradation at 1 uM incubated measured after 16 hr by western blot analysis; assay type: cell-based
Target sequence in this assay (P40337 whole entry, looked up): as the sequence (P40337 whole entry, looked up) above
Target sequence in this assay (Q07889 whole entry, looked up): as the sequence (Q07889 whole entry, looked up) above

[26] = Tmax in BALB/c mouse at 10 mg/kg, ip measured after 24 hrs by LC-MS/MS analysis; assay type: ADME, organism-based; conditions: in vivo
[27] = Binding affinity to SOS1/VCB E3 ligase (unknown origin) assessed as ternary dissociation constant by surface plasmon resonance analysis; design: species or system Homo sapiens
[28] = molecular target: von Hippel-Lindau disease tumor suppressor/Son of sevenless homolog 1/GTPase KRas (Homo sapiens) (UniProt Q07889+P01116+P40337); assay: Protac activity at SOS1/KRAS E3 ligase in human NCI-H358 cells assessed as KRAS protein level at 2.5 uM measured after 24 hr by […] analysis; assay type: cell-based
[29] = Observed MRT (infinity) in BALB/c mouse at 10 mg/kg, ip measured after 24 hrs by LC-MS/MS analysis; assay type: ADME, organism-based; conditions: in vivo
[30] = molecular target: T3, von Hippel-Lindau disease tumor suppressor/Son of sevenless homolog 2 (Homo sapiens); assay: Protac activity at VHL/SOS2 in human ASPC1 cells assessed as SOS2 mRNA level at 1 uM incubated for 24 to 72 hr by qRT PCR analysis; assay type: cell-based; conditions: time 24-72 hrs
[31] = Acute toxicity in BALB/c mouse assessed as change in body weight at 20 mg/kg, ip once daily for 7 days; assay type: organism-based; conditions: in vivo, 168 h, time 7 day
[32] = Toxicity in BALB/c nude mouse xenografted with human NCI-H358 cells assessed as effect on body weight at 20 to 50 mg/kg, IT twice weekly for 5 weeks; assay type: organism-based; conditions: in vivo, other, 840 h, dose 20-50 mg/kg

Structure (SMILES): Cc1cc(Cn2c(N3CC4(CNC4)C3)nc3c(N4CCN(CCCCCCCCC(=O)N[C@H](C(=O)N5C[C@H](O)C[C@H]5C(=O)N[C@@H](C)c5ccc(-c6scnc6C)cc5)C(C)(C)C)CC4)cc(Cl)cc32)cc(C)c1F
- Activity [1]: Active
- Activity [2]: 92.5%
- IC50 [3]: 0.115 µM
- IC50 [4]: 0.218 µM
- inhibition in vivo at 20 mg/kg/day [5]: 86.1%
- AUC(0-t) at 24 h [6]: 3900 ng·h/mL
- Activity [7]: Non-Toxic
- DC50 [8]: 0.255 µM
- AUC(0-inf) [9]: 4420 ng·h/mL
- Activity [10]: Active
- Activity [11]: Active
- Activity [12]: Non-Toxic
- Ratio [13]: 15.1
- IC50 [14]: 0.0723 µM
- inhibition in vivo at 10 mg/kg/day [15]: 72.5%
- DC50 [16]: 0.098 µM
- IC50 [17]: 0.307 µM
- Activity [18]: 56.2%
- Activity [19]: Active
- IC50 [20]: 0.525 µM
- Activity [21]: Active
- DC50 [22]: 0.022 µM
- Activity [23]: Active
- Activity [24]: Dde
- Activity [25]: Active
- Tmax [26]: 0.25 h
- Kd [27]: 0.0037 µM
- Activity [28]: Active
- MRT inf [29]: 10.2 h
- Activity [30]: Active
- Activity [31]: Non-Toxic
- Activity [32]: Non-Toxic
